In ChEMBL document CHEMBL1201862, “PubChem BioAssay data set” (2004):
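Method: 48-hour compound exposure of cells in 96-well plates, five concentrations, linear interpolation of endpoints. At the GI50, growth is halved.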 The source made the active and inactive calls. Rule as the data show it: active = GI50 up to about 1.1 µM and inactive = higher.

Key:
Assay in all cases: growth of human tumour cells (NCI), 48 h
BT-549 = test system: BT-549
CAKI-1 = test system: CAKI-1
COLO 205 = test system: COLO 205
SW-620 = test system: SW-620
786-0 = test system: 786-0
RXF 393 = test system: RXF 393
SK-OV-3 = test system: SK-OV-3
SN12C = test system: SN12C
HOP-92 = test system: HOP-92
HOP-62 = test system: HOP-62
UACC-62 = test system: UACC-62
UO-31 = test system: UO-31
K562 = test system: K562
SF-539 = test system: SF-539
A549 = test system: A549
SR = test system: SR
SK-MEL-2 = test system: SK-MEL-2
MDA-N = test system: MDA-N
SNB-75 = test system: SNB-75

SMILES | GI50 (BT-549) | GI50 (CAKI-1) | GI50 (COLO 205) | GI50 (SW-620) | GI50 (786-0) | GI50 (RXF 393) | GI50 (SK-OV-3) | GI50 (SN12C) | GI50 (HOP-92) | GI50 (HOP-62) | GI50 (UACC-62) | GI50 (UO-31) | GI50 (K562) | GI50 (SF-539) | GI50 (A549) | GI50 (SR) | GI50 (SK-MEL-2) | GI50 (MDA-N) | GI50 (SNB-75)
Cc1cc(NCC2CC/C(=C\C=C\c3ccccc3)C2=O)no1 (centres undefined) | > 100 µM (inactive) | > 100 µM (inactive) | > 100 µM (inactive) | > 100 µM (inactive) | > 100 µM (inactive) | > 100 µM (inactive) | > 100 µM (inactive) | > 100 µM (inactive) | 78.5 µM (inactive) | > 100 µM (inactive) | 32.1 µM (inactive) | 51.3 µM (inactive) | 92.7 µM (inactive) | > 100 µM (inactive) | > 100 µM (inactive) | 36.9 µM (inactive) | – | – | –
O=C1CC2(CCN(Cc3ccccc3)CC2)C(=O)N1N1CCCCC1 | > 100 µM (inactive) | > 100 µM (inactive) | > 100 µM (inactive) | > 100 µM (inactive) | > 100 µM (inactive) | > 100 µM (inactive) | > 100 µM (inactive) | > 100 µM (inactive) | – | > 100 µM (inactive) | > 100 µM (inactive) | > 100 µM (inactive) | > 100 µM (inactive) | > 100 µM (inactive) | > 100 µM (inactive) | – | > 100 µM (inactive) | > 100 µM (inactive) | > 100 µM (inactive)
C=CC(CBr)CCC(Br)C(C)(C)Br (centres undefined) | > 10 µM (inactive) | > 10 µM (inactive) | > 10 µM (inactive) | > 10 µM (inactive) | > 10 µM (inactive) | > 10 µM (inactive) | > 10 µM (inactive) | > 10 µM (inactive) | > 10 µM (inactive) | > 10 µM (inactive) | – | > 10 µM (inactive) | > 10 µM (inactive) | > 10 µM (inactive) | > 10 µM (inactive) | – | > 10 µM (inactive) | > 10 µM (inactive) | > 10 µM (inactive)
COc1ccc2c(c1)c1c(n2CCN2CCCCC2)-c2ccccc2CC1 | 23.1 µM (inactive) | 11.8 µM (inactive) | 13.6 µM (inactive) | 17.4 µM (inactive) | 18.6 µM (inactive) | – | 19.7 µM (inactive) | 16.9 µM (inactive) | 15.8 µM (inactive) | 18.6 µM (inactive) | – | 13.3 µM (inactive) | 8.99 µM (inactive) | 13.6 µM (inactive) | 16.4 µM (inactive) | 11.4 µM (inactive) | 15.2 µM (inactive) | – | 14.6 µM (inactive)
O=C(O)c1nn[nH]c1S | – | > 100 µM (inactive) | > 100 µM (inactive) | > 100 µM (inactive) | > 100 µM (inactive) | > 100 µM (inactive) | > 100 µM (inactive) | > 100 µM (inactive) | 4.59 µM (inactive) | > 100 µM (inactive) | > 100 µM (inactive) | > 100 µM (inactive) | > 100 µM (inactive) | 30.6 µM (inactive) | > 100 µM (inactive) | > 100 µM (inactive) | > 100 µM (inactive) | > 100 µM (inactive) | > 100 µM (inactive)
O=C(/C=C\c1ccc(Cl)cc1Cl)c1cccs1 | – | 24.2 µM (inactive) | 16.5 µM (inactive) | 12.5 µM (inactive) | 17.5 µM (inactive) | 24 µM (inactive) | 26.1 µM (inactive) | 17.4 µM (inactive) | 26.4 µM (inactive) | 24.3 µM (inactive) | 14.7 µM (inactive) | 11.9 µM (inactive) | 21.1 µM (inactive) | 19.8 µM (inactive) | 24.9 µM (inactive) | 5.61 µM (inactive) | 18.9 µM (inactive) | 16.6 µM (inactive) | 25.2 µM (inactive)
C#C[C@]1(O)CC[C@H]2[C@@H]3CCC4=C/C(=N/CCOC(=O)c5cccc6c(=O)c7ccccc7[nH]c56)CC[C@@H]4[C@H]3CC[C@@]21C | 32.3 µM (inactive) | 51.3 µM (inactive) | 37.1 µM (inactive) | 45.2 µM (inactive) | 42.4 µM (inactive) | 5.62 µM (inactive) | 51.5 µM (inactive) | 74.5 µM (inactive) | 23.1 µM (inactive) | 37.2 µM (inactive) | 36.8 µM (inactive) | 37.8 µM (inactive) | 36.4 µM (inactive) | – | 41.7 µM (inactive) | – | 30.1 µM (inactive) | 50.7 µM (inactive) | –
CCOC(=O)C1=CN=C2C(=O)N(c3ccccc3)N(C)C2(C)C1=N (centres undefined) | > 100 µM (inactive) | > 100 µM (inactive) | > 100 µM (inactive) | > 100 µM (inactive) | > 100 µM (inactive) | > 100 µM (inactive) | > 100 µM (inactive) | > 100 µM (inactive) | > 100 µM (inactive) | – | > 100 µM (inactive) | > 100 µM (inactive) | > 100 µM (inactive) | > 100 µM (inactive) | > 100 µM (inactive) | – | > 100 µM (inactive) | > 100 µM (inactive) | > 100 µM (inactive)
N#Cc1c(N2CCC(O)C2)c2ccccc2n2c1nc1ccccc12 (centres undefined) | 46.9 µM (inactive) | 37.9 µM (inactive) | > 100 µM (inactive) | > 100 µM (inactive) | 17.1 µM (inactive) | – | – | 72.4 µM (inactive) | 41.1 µM (inactive) | 18.6 µM (inactive) | > 100 µM (inactive) | > 100 µM (inactive) | – | 54.8 µM (inactive) | > 100 µM (inactive) | – | 43.4 µM (inactive) | > 100 µM (inactive) | 25.1 µM (inactive)
O=S1(=O)N=C(NCc2c[nH]c3ccccc23)N(c2ccccc2)c2ccncc21 | 55.1 µM (inactive) | > 100 µM (inactive) | > 100 µM (inactive) | > 100 µM (inactive) | 53.3 µM (inactive) | > 100 µM (inactive) | 40.2 µM (inactive) | 81.7 µM (inactive) | 22.6 µM (inactive) | 30 µM (inactive) | > 100 µM (inactive) | 5.25 µM (inactive) | > 100 µM (inactive) | 66.4 µM (inactive) | > 100 µM (inactive) | – | > 100 µM (inactive) | – | 16.8 µM (inactive)
CCCCCCCCCCCCC(O)C(=O)O (centres undefined) | > 100 µM (inactive) | > 100 µM (inactive) | > 100 µM (inactive) | > 100 µM (inactive) | > 100 µM (inactive) | – | > 100 µM (inactive) | > 100 µM (inactive) | > 100 µM (inactive) | > 100 µM (inactive) | > 100 µM (inactive) | > 100 µM (inactive) | > 100 µM (inactive) | > 100 µM (inactive) | > 100 µM (inactive) | – | > 100 µM (inactive) | > 100 µM (inactive) | > 100 µM (inactive)
Cn1nc(C(=O)N2CC(CCl)c3c2cc([N+](=O)[O-])c2ccccc32)cc1NC(=O)Nc1cc(C(=O)N2CC(CCl)c3c2cc([N+](=O)[O-])c2ccccc32)nn1C (centres undefined) | > 100 µM (inactive) | > 100 µM (inactive) | > 100 µM (inactive) | – | 79.6 µM (inactive) | – | > 100 µM (inactive) | > 100 µM (inactive) | > 100 µM (inactive) | 32.1 µM (inactive) | > 100 µM (inactive) | > 100 µM (inactive) | > 100 µM (inactive) | 0.0745 µM (active) | > 100 µM (inactive) | – | > 100 µM (inactive) | > 100 µM (inactive) | > 100 µM (inactive)
CCOC(=O)C1C=C1C(C)(C)O (centres undefined) | > 10 µM (inactive) | – | – | > 10 µM (inactive) | > 10 µM (inactive) | > 10 µM (inactive) | > 10 µM (inactive) | > 10 µM (inactive) | > 10 µM (inactive) | > 10 µM (inactive) | – | > 10 µM (inactive) | > 10 µM (inactive) | > 10 µM (inactive) | > 10 µM (inactive) | > 10 µM (inactive) | > 10 µM (inactive) | – | > 10 µM (inactive)
COc1cc(OC)cc(-c2nc3cc(F)ccc3s2)c1 | 11 µM (inactive) | 40.2 µM (inactive) | 34.1 µM (inactive) | > 100 µM (inactive) | 9.08 µM (inactive) | 17 µM (inactive) | 13.5 µM (inactive) | 36.4 µM (inactive) | – | – | 16.4 µM (inactive) | 31 µM (inactive) | – | 15.8 µM (inactive) | > 100 µM (inactive) | – | 23.6 µM (inactive) | > 100 µM (inactive) | –
C/C(=N\Nc1nc2ccccc2o1)c1ccncn1 | 5.19 µM (inactive) | 0.0471 µM (active) | 0.0427 µM (active) | 0.0455 µM (active) | 0.0869 µM (active) | 2.29 µM (inactive) | 0.294 µM (active) | 0.225 µM (active) | 0.124 µM (active) | 0.228 µM (active) | 0.28 µM (active) | 0.0479 µM (active) | 0.0514 µM (active) | 0.258 µM (active) | 0.24 µM (active) | 0.0647 µM (active) | 0.277 µM (active) | – | 0.457 µM (active)
CC(=O)Nc1ccc(-c2nc3ccccc3s2)cc1O | – | 27 µM (inactive) | 33.8 µM (inactive) | 84.5 µM (inactive) | 41.1 µM (inactive) | > 100 µM (inactive) | – | 30.4 µM (inactive) | 65.9 µM (inactive) | 32.3 µM (inactive) | 18.1 µM (inactive) | 19.6 µM (inactive) | 76.2 µM (inactive) | – | 40.1 µM (inactive) | 61.9 µM (inactive) | 49.1 µM (inactive) | 29.6 µM (inactive) | 24.8 µM (inactive)
CN1C/C(=C\c2cccs2)C(=O)/C(=C/c2cccs2)C1 | 21.4 µM (inactive) | 31.1 µM (inactive) | 24.4 µM (inactive) | 40.7 µM (inactive) | 17.7 µM (inactive) | 20.3 µM (inactive) | 33.2 µM (inactive) | 21.8 µM (inactive) | 2.51 µM (inactive) | 33 µM (inactive) | 57.3 µM (inactive) | 18.7 µM (inactive) | 25.1 µM (inactive) | – | 21.9 µM (inactive) | – | 20.8 µM (inactive) | 15.6 µM (inactive) | –
